Experimental data: ChEMBL document CHEMBL3046948, “Synthesis and SAR investigation of natural phenylpropene-derived methoxylated cinnamaldehydes and their novel Schiff bases as potent antimicrobial and antioxidant agents” (2013)
Values after ≈ are worked out from the molar mass of the structure shown. Active and inactive are the calls of the source. The rule behind the calls is not given here.

Key:
Format in all cases: functional
Candida albicans = assay: Antimicrobial activity against Candida albicans MTCC 3017 assessed as growth inhibition after 24 hr by broth microdilution method
Staphylococcus aureus = assay: Antimicrobial activity against Staphylococcus aureus MTCC 3160 assessed as growth inhibition after 24 hr by broth microdilution method
Aspergillus niger = assay: Antimicrobial activity against Aspergillus niger MTCC 404 assessed as growth inhibition after 5 days by broth microdilution method
Klebsiella pneumoniae = assay: Antimicrobial activity against Klebsiella pneumoniae MTCC 109 assessed as growth inhibition after 24 hr by broth microdilution method
Escherichia coli = assay: Antimicrobial activity against Escherichia coli MTCC 43 assessed as growth inhibition after 24 hr by broth microdilution method
Enterobacter cloacae = assay: Antimicrobial activity against Enterobacter cloacae MTCC 509 assessed as growth inhibition after 24 hr by broth microdilution method
Aspergillus parasiticus = assay: Antimicrobial activity against Aspergillus parasiticus MTCC 2797 assessed as growth inhibition after 5 days by broth microdilution method
Burkholderia cepacia = assay: Antimicrobial activity against Burkholderia cepacia MTCC 438 assessed as growth inhibition after 24 hr by broth microdilution method
Pseudomonas aeruginosa = assay: Antimicrobial activity against Pseudomonas aeruginosa MTCC 424 assessed as growth inhibition after 24 hr by broth microdilution method
Bacillus subtilis = assay: Antimicrobial activity against Bacillus subtilis MTCC 121 assessed as growth inhibition after 24 hr by broth microdilution method
Aspergillus sydowii = assay: Antimicrobial activity against Aspergillus sydowii MTCC 4335 assessed as growth inhibition after 5 days by broth microdilution method
Micrococcus luteus = assay: Antimicrobial activity against Micrococcus luteus MTCC 2470 assessed as growth inhibition after 24 hr by broth microdilution method
Trichophyton rubrum = assay: Antimicrobial activity against Trichophyton rubrum MTCC 296 assessed as growth inhibition after 5 days by broth microdilution method
Pichia kudriavzevii = assay: Antimicrobial activity against Pichia kudriavzevii MTCC 231 assessed as growth inhibition after 24 hr by broth microdilution method

Structure (SMILES)	MIC (Candida albicans; MTCC 3017, 24 h) [mM]	MIC (Staphylococcus aureus; MTCC 3160, 24 h) [mM]	MIC (Aspergillus niger; MTCC 404, 120 h) [mM]	MIC (Klebsiella pneumoniae; MTCC 109, 24 h) [mM]	MIC (Escherichia coli; MTCC 43, 24 h) [mM]	MIC (Enterobacter cloacae; MTCC 509, 24 h) [mM]	MIC (Aspergillus parasiticus; MTCC 2797, 120 h) [mM]	MIC (Burkholderia cepacia; MTCC 438, 24 h) [mM]	MIC (Pseudomonas aeruginosa; MTCC 424, 24 h) [mM]	MIC (Bacillus subtilis; MTCC 121, 24 h) [mM]	MIC (Aspergillus sydowii; MTCC 4335, 120 h) [mM]	MIC (Micrococcus luteus; MTCC 2470, 24 h) [mM]	MIC (Trichophyton rubrum; MTCC 296, 120 h) [mM]	MIC (Pichia kudriavzevii; MTCC 231, 24 h) [mM]	MIC (Staphylococcus aureus)	MIC (Aspergillus niger)	MIC (Klebsiella pneumoniae)	MIC (Escherichia coli)	MIC (Burkholderia cepacia)	MIC (Bacillus subtilis)	further results
CCOc1ccc(/C=C/C=O)cc1OC	2.42 (≈ 499 µg/mL)	2.42 (≈ 499 µg/mL)	4.85 (≈ 1000 µg/mL)	9.7 (≈ 2000 µg/mL)	9.7 (≈ 2000 µg/mL)	9.7 (≈ 2000 µg/mL)	2.42 (≈ 499 µg/mL)	4.85 (≈ 1000 µg/mL)	4.85 (≈ 1000 µg/mL)	4.85 (≈ 1000 µg/mL)	4.85 (≈ 1000 µg/mL)	4.85 (≈ 1000 µg/mL)	2.42 (≈ 499 µg/mL)	4.85 (≈ 1000 µg/mL)							
C=CCc1ccc2c(c1)OCO2 [SAFROLE]	6.16 (≈ 999 µg/mL)												6.16 (≈ 999 µg/mL)	6.16 (≈ 999 µg/mL)	inactive	inactive	inactive	inactive	inactive	inactive	MIC (Enterobacter cloacae): inactive; MIC (Aspergillus parasiticus): inactive; MIC (Pseudomonas aeruginosa): inactive; MIC (Aspergillus sydowii): inactive; MIC (Micrococcus luteus): inactive
COc1ccc(/C=C/C=O)cc1 [PARA-METHOXY CINNAMALDEHYDE]	0.77 (≈ 125 µg/mL)	3.08 (≈ 500 µg/mL)	3.08 (≈ 500 µg/mL)	3.08 (≈ 500 µg/mL)	3.08 (≈ 500 µg/mL)	3.08 (≈ 500 µg/mL)	3.08 (≈ 500 µg/mL)		0.77 (≈ 125 µg/mL)	6.16 (≈ 999 µg/mL)	3.08 (≈ 500 µg/mL)	3.08 (≈ 500 µg/mL)	0.77 (≈ 125 µg/mL)	0.77 (≈ 125 µg/mL)					inactive		
COc1ccc(/C=C/C=O)c(Br)c1OC															inactive	inactive	inactive	inactive	inactive	inactive	MIC (Candida albicans): inactive; MIC (Enterobacter cloacae): inactive; MIC (Aspergillus parasiticus): inactive; MIC (Pseudomonas aeruginosa): inactive; MIC (Aspergillus sydowii): inactive; MIC (Micrococcus luteus): inactive; MIC (Trichophyton rubrum): inactive; MIC (Pichia kudriavzevii): inactive
C/C=C/c1ccc(OC)cc1 [ANETHOLE]	6.74 (≈ 999 µg/mL)													6.74 (≈ 999 µg/mL)	inactive	inactive	inactive	inactive	inactive	inactive	MIC (Enterobacter cloacae): inactive; MIC (Aspergillus parasiticus): inactive; MIC (Pseudomonas aeruginosa): inactive; MIC (Aspergillus sydowii): inactive; MIC (Micrococcus luteus): inactive; MIC (Trichophyton rubrum): inactive
COc1cc(OC)c(OC)cc1C=O [ASARALDEHYDE]	2.55 (≈ 500 µg/mL)	5.1 (≈ 1000 µg/mL)	5.1 (≈ 1000 µg/mL)	10.2 (≈ 2000 µg/mL)	10.2 (≈ 2000 µg/mL)	10.2 (≈ 2000 µg/mL)	2.55 (≈ 500 µg/mL)	5.1 (≈ 1000 µg/mL)	2.55 (≈ 500 µg/mL)	5.1 (≈ 1000 µg/mL)	5.1 (≈ 1000 µg/mL)	2.55 (≈ 500 µg/mL)	0.16 (≈ 31.4 µg/mL)	2.55 (≈ 500 µg/mL)							
COc1ccc(/C=C/C=O)cc1OC [3,4-DIMETHOXY CINNAMALDEHYDE]	2.6 (≈ 500 µg/mL)	5.2 (≈ 1000 µg/mL)	5.2 (≈ 1000 µg/mL)	10.4 (≈ 2000 µg/mL)	10.4 (≈ 2000 µg/mL)	10.4 (≈ 2000 µg/mL)	2.6 (≈ 500 µg/mL)	5.2 (≈ 1000 µg/mL)	2.6 (≈ 500 µg/mL)	5.2 (≈ 1000 µg/mL)	5.2 (≈ 1000 µg/mL)	2.6 (≈ 500 µg/mL)	2.6 (≈ 500 µg/mL)	2.6 (≈ 500 µg/mL)							
O=C/C=C/c1ccccc1 [CINNAMALDEHYDE]	0.47 (≈ 62.1 µg/mL)	1.89 (≈ 250 µg/mL)	1.89 (≈ 250 µg/mL)	3.78 (≈ 500 µg/mL)	1.89 (≈ 250 µg/mL)	1.89 (≈ 250 µg/mL)	3.78 (≈ 500 µg/mL)	1.89 (≈ 250 µg/mL)	1.89 (≈ 250 µg/mL)	1.89 (≈ 250 µg/mL)	3.78 (≈ 500 µg/mL)	3.78 (≈ 500 µg/mL)	0.47 (≈ 62.1 µg/mL)	0.47 (≈ 62.1 µg/mL)							
CN(C)c1ccc(/C=C/C=O)cc1						11.4 (≈ 2000 µg/mL)						11.4 (≈ 2000 µg/mL)			inactive	inactive	inactive	inactive	inactive	inactive	MIC (Candida albicans): inactive; MIC (Aspergillus parasiticus): inactive; MIC (Pseudomonas aeruginosa): inactive; MIC (Aspergillus sydowii): inactive; MIC (Trichophyton rubrum): inactive; MIC (Pichia kudriavzevii): inactive
CCOC(=O)/C=C/c1ccc2c(c1)OCO2			0.56 (≈ 123 µg/mL)				0.14 (≈ 30.8 µg/mL)		0.56 (≈ 123 µg/mL)		0.14 (≈ 30.8 µg/mL)				inactive		inactive	inactive	inactive	inactive	MIC (Candida albicans): inactive; MIC (Enterobacter cloacae): inactive; MIC (Micrococcus luteus): inactive; MIC (Trichophyton rubrum): inactive; MIC (Pichia kudriavzevii): inactive
